According to PubChem BioAssay AID248 (DTP/NCI, 2004):
Where “and” joins values, the source holds several entries; their conditions need not be identical. Equal values may be shown once. Inconclusive results and toxic doses are left out. Cut-off read from the data, not from the text of the source: active = T/C of 150% or more; inactive = T/C below 125%.

Tested on: L1210 leukemia ip in BDF1 mice, survival T/C
Test: NCI In Vivo Anticancer Drug Screen. Data for tumor model L1210 Leukemia (intraperitoneal) in B6D2F1 (BDF1) mice
Conditions: endpoint: mean survival time, higher = longer survival
Procedure, shortened: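 Value reflects the ratio of survival in compound-treated mice to survival in vehicle-treated controls, with both groups carrying the same transplanted tumor.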

[1] = dose: 100.0 mg/kg/injection, schedule: Q04DX002 (ip), vehicle: saline with Tween-80
[2] = dose: 200.0 mg/kg/injection, schedule: Q04DX002 (ip), vehicle: saline with Tween-80
[3] = dose: 100.0 mg/kg/injection, schedule: Q04DX003 (ip), vehicle: saline with Tween-80
[4] = dose: 200.0 mg/kg/injection, schedule: Q04DX003 (ip), vehicle: saline with Tween-80
[5] = dose: 100.0 mg/kg/injection, schedule: Q01DX009 (ip), vehicle: Klucel (hydroxypropylcellulose) (HPC)
[6] = dose: 100.0 mg/kg/injection, schedule: Q04DX003 (ip), vehicle: Klucel (hydroxypropylcellulose) (HPC)
[7] = dose: 200.0 mg/kg/injection, schedule: Q01DX009 (ip), vehicle: Klucel (hydroxypropylcellulose) (HPC)
[8] = dose: 200.0 mg/kg/injection, schedule: Q04DX003 (ip), vehicle: Klucel (hydroxypropylcellulose) (HPC)
[9] = dose: 400.0 mg/kg/injection, schedule: Q01DX009 (ip), vehicle: Klucel (hydroxypropylcellulose) (HPC)
[10] = dose: 400.0 mg/kg/injection, schedule: Q04DX003 (ip), vehicle: Klucel (hydroxypropylcellulose) (HPC)
[11] = dose: 75.0 mg/kg/injection, schedule: Q01DX001 (ip), vehicle: saline
[12] = dose: 150.0 mg/kg/injection, schedule: Q01DX001 (ip), vehicle: saline
[13] = dose: 75.0 mg/kg/injection, schedule: Q04DX003 (ip), vehicle: saline
[14] = dose: 150.0 mg/kg/injection, schedule: Q04DX003 (ip), vehicle: saline
[15] = dose: 300.0 mg/kg/injection, schedule: Q04DX003 (ip), vehicle: saline

Measured: T/C

CCOC(=O)CNC(=O)Oc1cc(C)c(Cl)cc1C
inactive: dose: 100.0 mg/kg/injection, schedule: Q01DX001 (ip), vehicle: carboxymethylcellulose (CMC) 100 % of control and 110 % of control | dose: 100.0 mg/kg/injection, schedule: Q01DX009 (ip), vehicle: carboxymethylcellulose (CMC) 89 % of control | dose: 100.0 mg/kg/injection, schedule: Q04DX002 (ip), vehicle: carboxymethylcellulose (CMC) 93 % of control and 96 % of control | dose: 100.0 mg/kg/injection, schedule: Q04DX003 (ip), vehicle: carboxymethylcellulose (CMC) 101 % of control and 90 % of control | dose: 200.0 mg/kg/injection, schedule: Q01DX001 (ip), vehicle: carboxymethylcellulose (CMC) 106 % of control and 109 % of control | dose: 200.0 mg/kg/injection, schedule: Q01DX009 (ip), vehicle: carboxymethylcellulose (CMC) 95 % of control | dose: 200.0 mg/kg/injection, schedule: Q04DX002 (ip), vehicle: carboxymethylcellulose (CMC) 98 % of control and 99 % of control | dose: 200.0 mg/kg/injection, schedule: Q04DX003 (ip), vehicle: carboxymethylcellulose (CMC) 94 % of control and 103 % of control | dose: 400.0 mg/kg/injection, schedule: Q01DX001 (ip), vehicle: carboxymethylcellulose (CMC) 102 % of control and 103 % of control | dose: 400.0 mg/kg/injection, schedule: Q01DX009 (ip), vehicle: carboxymethylcellulose (CMC) 100 % of control | dose: 400.0 mg/kg/injection, schedule: Q04DX002 (ip), vehicle: carboxymethylcellulose (CMC) 95 % of control and 99 % of control | dose: 400.0 mg/kg/injection, schedule: Q04DX003 (ip), vehicle: carboxymethylcellulose (CMC) 97 % of control and 87 % of control

CCOc1ccc(NC(=O)N(O)C2(C#N)CCCCC2)cc1
inactive: dose: 100.0 mg/kg/injection, schedule: Q01DX001 (ip), vehicle: other 93 % of control | dose: 200.0 mg/kg/injection, schedule: Q01DX001 (ip), vehicle: other 96 % of control | dose: 400.0 mg/kg/injection, schedule: Q01DX001 (ip), vehicle: other 93 % of control

Cc1ccc(S(=O)(=O)SS(=O)(=O)c2ccc(C)cc2)cc1
inactive: [1] 90 % of control | [2] 90 % of control | dose: 400.0 mg/kg/injection, schedule: Q04DX002 (ip), vehicle: saline with Tween-80 90 % of control

C=C(C)CC1(CC2SCCCS2)SCCCS1
inactive: dose: 25.0 mg/kg/injection, schedule: Q04DX002 (ip), vehicle: saline with Tween-80 98 % of control | dose: 50.0 mg/kg/injection, schedule: Q04DX002 (ip), vehicle: saline with Tween-80 106 % of control | [1] 88 % of control | [2] 98 % of control

O=Nc1ccc(O)cc1I
inactive: dose: 100.0 mg/kg/injection, schedule: Q04DX002 (ip), vehicle: Klucel (hydroxypropylcellulose) (HPC) 100 % of control | dose: 200.0 mg/kg/injection, schedule: Q04DX002 (ip), vehicle: Klucel (hydroxypropylcellulose) (HPC) 97 % of control | dose: 400.0 mg/kg/injection, schedule: Q04DX002 (ip), vehicle: Klucel (hydroxypropylcellulose) (HPC) 93 % of control

CCCCCC/C=C/C(=O)OCC
inactive: [3] 96 % of control | [4] 101 % of control | dose: 400.0 mg/kg/injection, schedule: Q04DX003 (ip), vehicle: saline with Tween-80 101 % of control

CCCCNC(=O)n1ncc2cc(Cl)ccc21
inactive: dose: 100.0 mg/kg/injection, schedule: Q01DX001 (ip), vehicle: saline 103 % of control | dose: 200.0 mg/kg/injection, schedule: Q01DX001 (ip), vehicle: saline 100 % of control | dose: 400.0 mg/kg/injection, schedule: Q01DX001 (ip), vehicle: saline 94 % of control

CCCCCc1ccc2oc(=O)c3ccc(C)cc3c2c1O
inactive: [5] 90 % of control | [6] 97 % of control | [7] 93 % of control | [8] 98 % of control | [9] 97 % of control | [10] 97 % of control

CC1(C)N=C(N)N=C(N)N1c1ccc(CC(CCc2ccccc2)C(=O)Nc2ccc(S(=O)(=O)F)cc2)cc1 (centres undefined)
inactive: dose: 100.0 mg/kg/injection, schedule: Q01DX001 (ip), vehicle: Klucel (hydroxypropylcellulose) (HPC) 90 % of control | dose: 200.0 mg/kg/injection, schedule: Q01DX001 (ip), vehicle: Klucel (hydroxypropylcellulose) (HPC) 97 % of control | dose: 400.0 mg/kg/injection, schedule: Q01DX001 (ip), vehicle: Klucel (hydroxypropylcellulose) (HPC) 90 % of control

COc1nc(Br)ccc1/C=N\NC(N)=S
inactive: dose: 10.0 mg/kg/injection, schedule: Q04DX003 (ip), vehicle: Klucel (hydroxypropylcellulose) (HPC) 101 % of control | dose: 20.0 mg/kg/injection, schedule: Q04DX003 (ip), vehicle: Klucel (hydroxypropylcellulose) (HPC) 95 % of control | [10] 98 % of control

Cc1ccc(NC(=S)NC(=O)c2ccco2)cc1Cl
inactive: [5] 101 % of control | [6] 102 % of control | [7] 106 % of control | [8] 98 % of control | [9] 102 % of control | [10] 98 % of control

CN(C)c1ccnc(SCc2ccc(Cl)cc2Cl)n1
inactive: dose: 25.0 mg/kg/injection, schedule: Q01DX Z (ip), vehicle: methylcellulose (MC) 92 % of control | dose: 50.0 mg/kg/injection, schedule: Q01DX Z (ip), vehicle: methylcellulose (MC) 94 % of control

CCOC(=O)C1CCCCN1 (centres undefined)
inactive: [11] 91 % of control | [12] 91 % of control

CCOC(=O)C(C(C)=O)C(c1ccc([N+](=O)[O-])cc1)C(C(C)=O)C(=O)OCC (centres undefined)
inactive: dose: 3.12 mg/kg/injection, schedule: Q01DX009 (ip), vehicle: saline 86 % of control | dose: 6.25 mg/kg/injection, schedule: Q01DX009 (ip), vehicle: saline 88 % of control | dose: 12.5 mg/kg/injection, schedule: Q01DX009 (ip), vehicle: saline 89 % of control | dose: 25.0 mg/kg/injection, schedule: Q01DX009 (ip), vehicle: saline 86 % of control

CC1(C(O)(c2ccccc2)c2ccccc2)CC1
inactive: dose: 25.0 mg/kg/injection, schedule: Q04DX002 (sc), vehicle: olive oil, sesame oil, peanut oil 109 % of control | dose: 50.0 mg/kg/injection, schedule: Q04DX002 (sc), vehicle: olive oil, sesame oil, peanut oil 97 % of control | dose: 100.0 mg/kg/injection, schedule: Q04DX002 (sc), vehicle: olive oil, sesame oil, peanut oil 106 % of control

CCCCCCCCC(=O)N(C)OC
inactive: [3] 93 % of control | [4] 93 % of control

COc1ccc(C(C#N)=C2C=CC(=NO)C=C2)cc1
inactive: dose: 100.0 mg/kg/injection, schedule: Q01DX009 (ip), vehicle: saline with Tween-80 94 % of control

C[n+]1ccc(/C=C/c2c[nH]c3ccccc23)cc1
inactive: dose: 6.25 mg/kg/injection, schedule: Q04DX003 (ip), vehicle: saline with Tween-80 92 % of control | dose: 12.5 mg/kg/injection, schedule: Q04DX003 (ip), vehicle: saline with Tween-80 104 % of control | dose: 25.0 mg/kg/injection, schedule: Q04DX003 (ip), vehicle: saline with Tween-80 97 % of control

N#Cc1cc2ccccc2n(O)c1=N
inactive: [13] 93 % of control | [14] 109 % of control | [15] 107 % of control

O=[N+]([O-])c1ccc(N2CCCC2)nc1
inactive: dose: 100.0 mg/kg/injection, schedule: Q01DX001 (ip), vehicle: saline with Tween-80 107 % of control | dose: 200.0 mg/kg/injection, schedule: Q01DX001 (ip), vehicle: saline with Tween-80 93 % of control | dose: 400.0 mg/kg/injection, schedule: Q01DX001 (ip), vehicle: saline with Tween-80 100 % of control

CCOC(=O)C1CN(CCc2ccccc2)CCC1=O (centres undefined)
inactive: [11] 101 % of control | [13] 100 % of control | [12] 95 % of control | [14] 100 % of control | dose: 300.0 mg/kg/injection, schedule: Q01DX001 (ip), vehicle: saline 91 % of control | [15] 108 % of control

CC1OCC(C)C(C)(C)O1 (centres undefined)
inactive: dose: 50.0 mg/kg/injection, schedule: Q01DX009 (ip), vehicle: acetone 100 % of control | dose: 100.0 mg/kg/injection, schedule: Q01DX009 (ip), vehicle: acetone 90 % of control | dose: 100.0 mg/kg/injection, schedule: Q04DX003 (ip), vehicle: acetone 112 % of control | dose: 200.0 mg/kg/injection, schedule: Q01DX009 (ip), vehicle: acetone 89 % of control | dose: 200.0 mg/kg/injection, schedule: Q04DX003 (ip), vehicle: acetone 108 % of control | dose: 400.0 mg/kg/injection, schedule: Q04DX003 (ip), vehicle: acetone 103 % of control
